Source: patent publication US20240158446A1, “CYCLIC COMPOUND HAVING SELECTIVE INHIBITORY ACTION ON KRAS OVER HRAS AND NRAS” (CHUGAI SEIYAKU KABUSHIKI KAISHA, priority 2021, published 2024)
Read-outs that look alike come from different tables or passages of the source. Where a SMILES comes first, the peptide text is derived from it. Bridges are numbered along the chain shown (N, C = ends). [ ]: non-standard residue; d: D form. The star is where a group is joined. hPhe(3-Cl-4-CF3) = N[C@@H](CCc1ccc(C(F)(F)F)c(Cl)c1)C(=O)O; NPrPhe(4-CF3) = CCCN[C@@H](Cc1ccc(C(F)(F)F)cc1)C(=O)O; NMeGly(cPent) = CN[C@H](C(=O)O)C1CCCC1; Pro(4,4-F2) = O=C(O)[C@@H]1CC(F)(F)CN1; NMeD = CN[C@@H](CC(=O)O)C(=O)O; NMeAbu = CC[C@H](NC)C(=O)O; Morpholide = C1CN(*)CCO1; Ac5c = NC1(C(=O)O)CCCC1; Sar = CNCC(=O)O

Legend:
[1] = target: GDP-bound NRAS wild-type protein (Homo sapiens, UniProt P01111); test: Binding to NRAS by surface plasmon resonance (SPR), Single Cycle Kinetics; details: SPR, GDP-bound NRAS wild-type protein vs GDP-bound KRAS wild-type protein
GDP-bound NRAS wild-type protein, sequence (P01111 whole entry): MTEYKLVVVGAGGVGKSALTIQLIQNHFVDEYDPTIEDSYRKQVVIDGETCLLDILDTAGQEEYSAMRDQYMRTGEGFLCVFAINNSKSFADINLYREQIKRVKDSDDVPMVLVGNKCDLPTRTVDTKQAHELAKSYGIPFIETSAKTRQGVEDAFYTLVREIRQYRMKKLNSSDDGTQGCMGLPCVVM

[2] = target: GDP-bound KRAS wild-type protein (Homo sapiens, UniProt P01116); test: Binding to KRAS by surface plasmon resonance (SPR), Single Cycle Kinetics; details: GDP-bound KRAS wild-type protein, read-out: KRAS KD
GDP-bound KRAS wild-type protein, sequence (P01116 whole entry): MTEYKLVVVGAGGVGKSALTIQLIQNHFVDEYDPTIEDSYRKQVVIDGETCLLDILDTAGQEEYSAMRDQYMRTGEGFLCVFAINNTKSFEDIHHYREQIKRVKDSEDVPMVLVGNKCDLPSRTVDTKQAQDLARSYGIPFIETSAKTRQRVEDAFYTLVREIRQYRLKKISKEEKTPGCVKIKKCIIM

[3] = target: GDP-bound HRAS wild-type protein (Homo sapiens, UniProt P01112); test: Binding to HRAS by surface plasmon resonance (SPR), Single Cycle Kinetics; details: SPR, GDP-bound HRAS wild-type protein vs GDP-bound KRAS wild-type protein
GDP-bound HRAS wild-type protein, sequence (P01112 whole entry): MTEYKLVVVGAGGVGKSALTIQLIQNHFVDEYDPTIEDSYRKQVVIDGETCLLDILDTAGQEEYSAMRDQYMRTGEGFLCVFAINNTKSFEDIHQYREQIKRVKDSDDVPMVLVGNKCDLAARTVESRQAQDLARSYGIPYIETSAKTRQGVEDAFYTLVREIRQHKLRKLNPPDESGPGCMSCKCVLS

[4] = SPR Single Cycle Kinetics, 1:1 binding model

Kd [2, 4] [nM] | Kd ([2]; SPR, Single Cycle Kinetics) [nM] | Structure (SMILES) | NRAS/KRAS (ratio of KD value with respect to NRAS to KD value with respect to KRAS) [1] | HRAS/KRAS (ratio of KD value with respect to HRAS to KD value with respect to KRAS) [3] | NRAS/KRAS (ratio of KD value for NRAS to KD value for KRAS) [1] | HRAS/KRAS (ratio of KD value for HRAS to KD value for KRAS) [3]
2.4 | – | CC[C@H](C)[C@@H]1NC(=O)[C@H](CC(C)C)N(C)C(=O)C[C@@H](C(=O)N2CCCC2)N(C)C(=O)[C@H](C2CCCC2)N(C)C(=O)C2(CCCC2)NC(=O)[C@@H]2CCCN2C(=O)[C@H](CCc2cc(F)c(C(F)(F)F)c(F)c2)NC(=O)CN(C)C(=O)[C@H](Cc2ccc(C(F)(F)F)cc2)N2CCCCC[C@@H](C2=O)N(C)C(=O)CN(C)C1=O [PP0509] | B (a compound having 3 or more and less than 10 is denoted as B) | B (a compound having 3 or more and less than 10 is denoted as B) | – | –
– | 0.046 | CCO[C@@H]1C[C@H]2C(=O)NC3(CCC3)C(=O)N(C)[C@@H](C3CCCC3)C(=O)N(C)[C@H](C(=O)N(C)C)CC(=O)N(C)[C@@H](CC)C(=O)N[C@@H]([C@@H](C)CC)C(=O)N(C)CC(=O)N(C)[C@H]3CCCCN(C3=O)[C@@H](Cc3ccc(C(F)(F)F)cc3)C(=O)N(C)CC(=O)N[C@@H](CCc3cc(Cl)c(Cl)c(Cl)c3)C(=O)N2C1 [PP0988] | – | – | C (A compound having a KD ratio of 0.1 or more and less than 3 is denoted as C) | B (a compound having 3 or more and less than 10 is denoted as B)
– | 0.46 | CCO[C@@H]1C[C@H]2C(=O)NC3(CCC3)C(=O)N(C)[C@@H](C3CCCC3)C(=O)N(C)[C@H](C(=O)N3CCOCC3)CC(=O)N(C)[C@@H](COC)C(=O)N[C@@H]([C@@H](C)CC)C(=O)N(C)CC(=O)N(C)[C@H]3CCCCCN(C3=O)[C@@H](Cc3ccc(C(F)(F)F)cc3)C(=O)N(C)CC(=O)N[C@@H](CCc3ccc(C(F)(F)F)c(Cl)c3)C(=O)N2C1 [PP0849] | – | – | B (a compound having 3 or more and less than 10 is denoted as B) | B (a compound having 3 or more and less than 10 is denoted as B)
0.77 | – | CC[C@H](C)[C@@H]1NC(=O)[C@H](C)N(C)C(=O)C[C@@H](C(=O)N(C)C)N(C)C(=O)[C@H](C2CCCC2)N(C)C(=O)C2(CCCC2)NC(=O)[C@@H]2CC(F)(F)CN2C(=O)[C@H](CCc2cc(F)c(C(F)(F)F)c(F)c2)NC(=O)CN(C)C(=O)[C@H](Cc2ccc(C(F)(F)F)cc2)N2CCCCC[C@@H](C2=O)N(C)C(=O)CN(C)C1=O [PP0472] | B (a compound having 3 or more and less than 10 is denoted as B) | B (a compound having 3 or more and less than 10 is denoted as B) | – | –
0.076 | – | CCCN1C(=O)CN(C)C(=O)CN(C)C(=O)[C@H]([C@@H](C)CC)NC(=O)[C@H](CC)N(C)C(=O)C[C@@H](C(=O)N2CCOCC2)N(C)C(=O)[C@H](C2CCCC2)N(C)C(=O)C2(CCCC2)NC(=O)[C@@H]2CC(F)(F)CN2C(=O)[C@H](CCc2ccc(C(F)(F)F)c(Cl)c2)NC(=O)CN(C)C(=O)[C@@H]1Cc1ccc(C(F)(F)F)cc1 [PP0202] ([NMeAbu]I[Sar][Sar][NPrPhe(4-CF3)][Sar][hPhe(3-Cl-4-CF3)][Pro(4,4-F2)][Ac5c][NMeGly(cPent)][NMeD]-Morpholide; lactam N-11) | – | – | B (a compound having 3 or more and less than 10 is denoted as B) | C (A compound having a KD ratio of 0.1 or more and less than 3 is denoted as C)
– | 0.37 | CCC[C@H]1C(=O)N[C@@H](C2CCCCC2)C(=O)N(C)CC(=O)N(C)[C@H]2C/C=C\CCN(C2=O)[C@@H](Cc2ccc(C(F)(F)F)cc2)C(=O)N(C)CC(=O)N[C@@H](CCc2ccc(C(F)(F)F)c(Cl)c2)C(=O)N2C[C@H](OCC)C[C@H]2C(=O)NC2(CC(C)(C)C2)C(=O)N(C)[C@@H](CC(C)(C)C)C(=O)N(C)[C@H](C(=O)N(C)C)CC(=O)N1C [PP3014] | – | – | AA (a compound having 20 or more is denoted as AA) | A (a compound having 10 or more and less than 20 is denoted as A)
– | 0.5 | CCO[C@@H]1C[C@H]2C(=O)NC3(CCC3)C(=O)N(C)[C@@H](C3CCCC3)C(=O)N(C)[C@H](C(=O)N3CCOCC3)CC(=O)N(C)[C@@H](CC(C)C)C(=O)N[C@@H]([C@@H](C)CC)C(=O)N(C)CC(=O)N(C)[C@H]3CCCCCN(C3=O)[C@@H](Cc3ccc(F)c(C)c3)C(=O)N(C)CC(=O)N[C@@H](CCc3cc(F)c(C(F)(F)F)c(F)c3)C(=O)N2C1 [PP0922] | – | – | B (a compound having 3 or more and less than 10 is denoted as B) | B (a compound having 3 or more and less than 10 is denoted as B)
